# Measurements reported in ChEMBL document CHEMBL1145244, “In vitro advanced antimycobacterial screening of isoniazid-related hydrazones, hydrazides and cyanoboranes: part 14” (2005).
# Columns and labels:
# Assay type in all cases: functional
# [1] = tested on: Mycobacterium tuberculosis; experiment: In vitro antimycobacterial activity against ethambutol-resistant Mycobacterium tuberculosis strain
# [2] = tested on: Mycobacterium tuberculosis; experiment: In vitro antimycobacterial activity against isoniazid-resistant Mycobacterium tuberculosis strain
# [3] = tested on: Mycobacterium tuberculosis; experiment: In vitro antimycobacterial activity against ethionamide-resistant Mycobacterium tuberculosis strain
# [4] = tested on: Mycobacterium tuberculosis; experiment: In vitro antimycobacterial activity against thiacetazone resistant Mycobacterium tuberculosis strain
# [5] = tested on: Mycobacterium tuberculosis; experiment: In vitro antimycobacterial activity against rifampin-resistant Mycobacterium tuberculosis strain
# [6] = tested on: Mycobacterium tuberculosis; experiment: Minimum inhibitory concentration against isoniazid-resistant Mycobacterium tuberculosis strain
SMILES,MIC [1] [µg/mL],MBC [2] [µg/mL],MIC [2] [µg/mL],MIC [3] [µg/mL],MIC [4] [µg/mL],MBC [5] [µg/mL],MIC [5] [µg/mL],MIC [6] [µg/mL]
N#CC[n+]1ccc(C(=O)NNCc2ccccc2)cc1,6.25,> 25,> 25,> 25,> 25,,,
O=C(N/N=C/c1ccc(C(F)(F)F)cc1)c1ccncc1,0.2,> 1.6,> 1.6,1.6,> 1.6,0.4,0.2,
C/C=N/NC(=O)c1ccncc1,0.025,> 0.75,> 0.75,0.375,> 0.75,0.05,0.05,
NNC(=O)c1ccncc1 [ISONIAZID],,> 1.6,,,,,,> 0.2
C/C(=N\NC(=O)c1ccncc1)C(F)(F)F,0.2,> 1.6,> 1.6,> 1.6,> 1.6,0.2,0.2,
N#CC[n+]1ccc(C(=O)NNCC(F)(F)F)cc1,12.5,> 25,> 25,> 25,> 25,6.25,12.5,
C/C(=N\NC(=O)c1ccncc1)c1cccc(/C(C)=N/NC(=O)c2ccncc2)n1,≤ 0.2,12.5,> 12.5,> 12.5,> 12.5,6.25,≤ 0.2,
